Data from ChEMBL document CHEMBL4340535, “Antitumor effect of chiral organotelluranes elicited in a murine melanoma model” (Bioorg Med Chem, 2019).
Activity calls are given as the source filed them. The rule behind the calls is not given here.

Key:
B16F10Nex2 [1] = assay: Inhibition of cell adhesion of mouse B16F10Nex2 cells assessed as reduction in cell adhesion to type 4 collagen at 2 uM incubated for 3 hrs by toluidine blue staining based assay; assay type: functional
HT-144 [2] = assay: Cytotoxicity against human HT144 cells assessed as reduction in cell viability incubated for 16 hrs by MTT assay; assay type: functional, cell-based
HeLa = assay: Cytotoxicity against human HeLa cells assessed as reduction in cell viability incubated for 16 hrs by MTT assay; assay type: functional, cell-based
HT-144 [3] = assay: (§1) Induction of morphological changes in human HT144 cells assessed as cell rounding with remaining cortical actin in close association with the microtubule network at 30 uM incubated for 24 hrs by phalloidin-TRITC, tubulin-Cy2 and TOPRO-3 staining based confocal microscopic method; assay type: functional
HT-144 [4] = assay: Induction of morphological changes in human HT144 cells assessed as depolymerisation of F-actin at 10 uM incubated for 24 hrs by tubulin-Cy2 and TOPRO-3 staining based confocal microscopic method; assay type: functional, cell-based
B16F10Nex2 [5] = assay: Induction of morphological changes in mouse B16F10Nex2 cells at 10 uM incubated for 24 hrs by tubulin-Cy2 and TOPRO-3 staining based confocal microscopic method; assay type: functional, cell-based
B16F10Nex2 [6] = assay: Induction of morphological changes in mouse B16F10Nex2 cells assessed as retraction of cell protrusions at 10 uM incubated for 24 hrs by tubulin-Cy2 and TOPRO-3 staining based confocal microscopic method; assay type: functional
A2058 = assay: Cytotoxicity against human A2058 cells assessed as reduction in cell viability incubated for 16 hrs by MTT assay; assay type: functional, cell-based; conditions: for IC50: A2058, 16 h
HT-144 [7] = assay: Induction of morphological changes in human HT144 cells assessed as membrane blebbing at 10 uM incubated for 24 hrs by tubulin-Cy2 and TOPRO-3 staining based confocal microscopic method; assay type: functional, cell-based
MeWo = assay: Cytotoxicity against human MeWo cells assessed as reduction in cell viability incubated for 16 hrs by MTT assay; assay type: functional, cell-based
SK-MEL-28 = assay: Cytotoxicity against human SK-MEL-28 cells assessed as reduction in cell viability incubated for 16 hrs by MTT assay; assay type: functional, cell-based; conditions: for IC50: SK-MEL-28, 16 h
B16F10Nex2 [8] = assay: Antitumor activity against mouse B16F10Nex2 cells transplanted in C57BL/6 mouse assessed as reduction in lungs superficial nodules at 20 uM, ip administered every other day for 12 days and measured 21 days post transplantation relative to control; assay type: functional
HT-144 [9] = assay: Induction of morphological changes in human HT144 cells assessed as reduction in stress fibers formation by measuring cell rounding at 30 uM incubated for 24 hrs by phalloidin-TRITC, tubulin-Cy2 and TOPRO-3 staining based confocal microscopic method; assay type: functional
B16F10Nex2 [10] = assay: Cytotoxicity against mouse B16F10Nex2 cells assessed as reduction in cell viability incubated for 16 hrs by MTT assay; assay type: functional, cell-based; conditions: for IC50: B16F10Nex2, 16 h
B16F10Nex2 [11] = assay: Inhibition of cell adhesion of mouse B16F10Nex2 cells assessed as reduction in cell adhesion to fibronectin at 2 uM incubated for 3 hrs by toluidine blue staining based assay; assay type: functional
[12] = target: Procathepsin L (Homo sapiens) (UniProt P07711); assay: Inhibition of human recombinant cathepsin L expressed in Pichia pastoris assessed as second-order inhibition rate constant using Z-FR-MCA as substrate incubated for 10 mins by spectrofluorimetric method
B16F10Nex2 [13] = assay: Induction of morphological changes in mouse B16F10Nex2 cells assessed as membrane blebbing at 10 uM incubated for 24 hrs by tubulin-Cy2 and TOPRO-3 staining based confocal microscopic method; assay type: functional, cell-based
[14] = target: Cathepsin S (Homo sapiens) (UniProt P25774); assay: Inhibition of human recombinant cathepsin S assessed as second-order inhibition rate constant using Z-FR-MCA as substrate incubated for 10 mins by spectrofluorimetric method
B16F10Nex2 [15] = assay: Antitumor activity against mouse B16F10Nex2 cells transplanted in C57BL/6 mouse assessed as reduction in lung metastases at 20 uM, ip administered for 5 non-consecutive days and measured 21 days post transplantation relative to control; assay type: functional; set-up: scale not given: the % may be the effect or the level left
HUVEC [16] = assay: Cytotoxicity against human HUVEC cells assessed as reduction in cell viability incubated for 16 hrs by MTT assay; assay type: cell-based; conditions: for IC50: Homo sapiens, HUVEC; for Activity: human, huvec
[17] = target: Cathepsin B (Homo sapiens) (UniProt P07858); assay: Inhibition of human recombinant cathepsin B assessed as second-order inhibition rate constant using Z-RR-MCA as substrate incubated for 10 mins by spectrofluorimetric method
SK-MEL-25 = assay: Cytotoxicity against human SK-MEL-25 cells assessed as reduction in cell viability incubated for 16 hrs by MTT assay; assay type: functional, cell-based; conditions: for IC50: SK-MEL-25, 16 h
HUVEC [18] = assay: Anti-invasive activity in human HUVEC cells assessed as reduction in invasive potential at 20 uM incubated for 24 hrs by Giemsa staining based matrigel assay; assay type: functional, cell-based
B16F10Nex2 [19] = assay: Anti-invasive activity in mouse B16F10Nex2 cells assessed as reduction in invasive potential at 20 uM incubated for 24 hrs by Giemsa staining based matrigel assay relative to control; assay type: functional; conditions: B16F10Nex2, 24 h
HUVEC [20] = assay: Anti-angiogenic activity in human HUVEC cells assessed as inhibition in pro-angiogenic structures formation in presence of fetal calf serum at 0.062 uM incubated for 18 hrs by inverted light microscopy based matrigel assay; assay type: functional
B16F10Nex2 [21] = assay: Inhibition of cell adhesion of mouse B16F10Nex2 cells assessed as reduction in cell adhesion to laminin at 2 uM incubated for 3 hrs by toluidine blue staining based assay; assay type: functional
HT-144 [22] = assay: as §1, with “reduction in stress fibers formation by measuring” for “cell rounding with”; assay type: functional, cell-based
B16F10Nex2 [23] = assay: Induction of morphological changes in mouse B16F10Nex2 cells assessed as depolymerisation of F-actin at 10 uM incubated for 24 hrs by tubulin-Cy2 and TOPRO-3 staining based confocal microscopic method; assay type: functional, cell-based
HT-144 [24] = assay: Induction of morphological changes in human HT144 cells assessed as retraction of cell protrusions at 10 uM incubated for 24 hrs by tubulin-Cy2 and TOPRO-3 staining based confocal microscopic method; assay type: functional
B16F10Nex2 [25] = assay: Induction of morphological changes in mouse B16F10Nex2 cells assessed as cell rounding at 10 uM incubated for 24 hrs by tubulin-Cy2 and TOPRO-3 staining based confocal microscopic method; assay type: functional
HT-144 [26] = assay: Induction of morphological changes in human HT144 cells assessed as cell rounding at 10 uM incubated for 24 hrs by tubulin-Cy2 and TOPRO-3 staining based confocal microscopic method; assay type: functional
NIH3T3 = assay: Cytotoxicity against mouse 3T3 cells assessed as reduction in cell viability incubated for 16 hrs by MTT assay; assay type: cell-based; conditions: for IC50: Mus musculus, NIH3T3, 16 h; for Activity: mouse, nih3t3, 16 h
B16F10Nex2 [27] = assay: Antimigratory activity against mouse B16F10Nex2 cells assessed as reduction in cell migration towards wound area at 20 uM measured every hour for 24 hrs by scratch wound-healing assay relative to control; assay type: functional; conditions: B16F10Nex2, 24 h
B16F10Nex2 [28] = assay: Inhibition of cell adhesion of mouse B16F10Nex2 cells assessed as reduction in cell adhesion to type 1 collagen at 2 uM incubated for 3 hrs by toluidine blue staining based assay; assay type: functional
HT-144 [29] = assay: Induction of morphological changes in human HT144 cells at 10 uM incubated for 24 hrs by tubulin-Cy2 and TOPRO-3 staining based confocal microscopic method; assay type: functional, cell-based
HUVEC [30] = assay: Anti-angiogenic activity in human HUVEC cells assessed as inhibition in pro-angiogenic structures formation in presence of fetal calf serum at 0.5 uM incubated for 18 hrs by inverted light microscopy based matrigel assay; assay type: functional
HUVEC [31] = assay: Antimigratory activity against human HUVEC cells assessed as reduction in cell migration towards wound area at 20 uM measured every hour for 24 hrs by scratch wound-healing assay relative to control; assay type: functional
HUVEC [32] = assay: Anti-angiogenic activity in human HUVEC cells assessed as inhibition in pro-angiogenic structures formation in presence of fetal calf serum at 5 uM incubated for 18 hrs by inverted light microscopy based matrigel assay; assay type: functional

Sequence of Cathepsin S (Homo sapiens) (P25774 115-331 limits assumed): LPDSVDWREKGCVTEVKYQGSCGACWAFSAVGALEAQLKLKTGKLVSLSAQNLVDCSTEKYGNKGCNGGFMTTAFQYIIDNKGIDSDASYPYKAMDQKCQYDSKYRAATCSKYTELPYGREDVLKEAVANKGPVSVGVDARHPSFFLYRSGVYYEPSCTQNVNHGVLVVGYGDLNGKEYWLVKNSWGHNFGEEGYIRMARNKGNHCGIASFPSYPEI
Sequence of Procathepsin L (Homo sapiens) (P07711 114-333 limits assumed): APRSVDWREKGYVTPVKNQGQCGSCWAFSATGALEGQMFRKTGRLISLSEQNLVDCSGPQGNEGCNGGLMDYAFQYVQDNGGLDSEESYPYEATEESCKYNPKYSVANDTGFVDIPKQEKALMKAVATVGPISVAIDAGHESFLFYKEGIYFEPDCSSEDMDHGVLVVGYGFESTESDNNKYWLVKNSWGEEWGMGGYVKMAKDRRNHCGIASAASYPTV

`CCCC[Te](Cl)(Cl)c1ccccc1[C@H](C)OC` was tested, and the inhibition (B16F10Nex2 [1]) was “Active”, the Activity (HT-144 [2]) was “Dose-dependent effect” and the Activity (HeLa) was “Dose-dependent effect”. For the same compound, the IC50 (HeLa) was 0.8 mM, the Activity (HT-144 [3]) was “Active” and the Activity (HT-144 [4]) was “Active”. For the same compound, the Activity (B16F10Nex2 [5]) was “Active”, the Activity (B16F10Nex2 [6]) was “Active” and the Activity (A2058) was “Dose-dependent effect”. For the same compound, the IC50 (A2058) was 1.5 mM, the Activity (HT-144 [7]) was “Active” and the Activity (MeWo) was “Dose-dependent effect”. For the same compound, the IC50 (MeWo) was 3.2 mM, the Activity (SK-MEL-28) was “Dose-dependent effect” and the IC50 (SK-MEL-28) was 3.1 mM. The “fold change (FC)” value (B16F10Nex2 [8]) was 7, the Activity (HT-144 [9]) was “Active” and the Activity (B16F10Nex2 [10]) was “Dose-dependent effect”. The IC50 (B16F10Nex2 [10]) was 0.9 mM, the inhibition (B16F10Nex2 [11]) was “Active” and the K [12] was 8700 M⁻¹ s⁻¹. The Activity (B16F10Nex2 [13]) was “Active”, the K [14] was 600000 M⁻¹ s⁻¹ and the Activity (B16F10Nex2 [15]) was 85%. For the same compound, the IC50 (HUVEC [16]) was 2.8 mM, the Activity (HUVEC [16]) was “Dose-dependent effect” and the K [17] was 7400 M⁻¹ s⁻¹. The Activity (SK-MEL-25) was “Dose-dependent effect”, the IC50 (SK-MEL-25) was 2.5 mM and the Activity (HUVEC [18]) was “Active”. The inhibition at 20 µM (B16F10Nex2 [19]) was 80%, the inhibition at 0.062 µM (HUVEC [20]) was 55% and the inhibition (B16F10Nex2 [21]) was “Active”. The Activity (HT-144 [22]) was “Active”, the Activity (B16F10Nex2 [23]) was “Active” and the Activity (HT-144 [24]) was “Active”. For the same compound, the Activity (B16F10Nex2 [25]) was “Active”, the Activity (HT-144 [26]) was “Active” and the IC50 (NIH3T3) was 3.1 mM. For the same compound, the Activity (NIH3T3) was “Dose-dependent effect”, the inhibition at 20 µM (B16F10Nex2 [27]) was 80% and the inhibition (B16F10Nex2 [28]) was “Active”. The Activity (HT-144 [29]) was “Active”.
In the case of `CCCC[Te](Cl)(Cl)c1ccccc1[C@@H](C)OC`, the inhibition (B16F10Nex2 [1]) is reported as “Active”, the inhibition at 0.5 µM (HUVEC [30]) is reported as 45% and the Activity (HT-144 [2]) is reported as “Dose-dependent effect”. The Activity (HeLa) was “Dose-dependent effect”, the IC50 (HeLa) was 2.3 mM and the Activity (HT-144 [3]) was “Active”. The Activity (HT-144 [4]) was “Active”, the Activity (B16F10Nex2 [5]) was “Active” and the Activity (B16F10Nex2 [6]) was “Active”. For the same compound, the Activity (A2058) was “Dose-dependent effect”, the IC50 (A2058) was 5.5 mM and the Activity (HT-144 [7]) was “Active”. The Activity (MeWo) was “Dose-dependent effect”, the IC50 (MeWo) was 9.5 mM and the Activity (SK-MEL-28) was “Dose-dependent effect”. For the same compound, the IC50 (SK-MEL-28) was 6.2 mM, the “fold change (FC)” value (B16F10Nex2 [8]) was 2 and the Activity (HT-144 [9]) was “Active”. For the same compound, the Activity (B16F10Nex2 [10]) was “Dose-dependent effect”, the IC50 (B16F10Nex2 [10]) was 2.3 mM and the inhibition (B16F10Nex2 [11]) was “Active”. For the same compound, the K [12] was 5500 M⁻¹ s⁻¹, the Activity (B16F10Nex2 [13]) was “Active” and the K [14] was 39000 M⁻¹ s⁻¹. The Activity (B16F10Nex2 [15]) was 58%, the IC50 (HUVEC [16]) was 20.3 mM and the Activity (HUVEC [16]) was “Dose-dependent effect”. For the same compound, the K [17] was 3700 M⁻¹ s⁻¹, the Activity (SK-MEL-25) was “Dose-dependent effect” and the IC50 (SK-MEL-25) was 18 mM. The Activity (HUVEC [18]) was “Active”, the inhibition at 20 µM (B16F10Nex2 [19]) was 80% and the inhibition (B16F10Nex2 [21]) was “Active”. The inhibition at 20 µM (HUVEC [31]) was 33%, the Activity (HT-144 [22]) was “Active” and the Activity (B16F10Nex2 [23]) was “Active”. For the same compound, the Activity (HT-144 [24]) was “Active”, the Activity (B16F10Nex2 [25]) was “Active” and the Activity (HT-144 [26]) was “Active”. The IC50 (NIH3T3) was 11.5 mM, the Activity (NIH3T3) was “Dose-dependent effect” and the inhibition at 20 µM (B16F10Nex2 [27]) was 80%. For the same compound, the inhibition (B16F10Nex2 [28]) was “Active” and the Activity (HT-144 [29]) was “Active”.
For `CC(C)C[C@H](NC(=O)[C@H]1O[C@@H]1C(=O)O)C(=O)NCCCCN=C(N)N` [E-64], the inhibition at 5 µM (HUVEC [32]) was 80%.
